Consider 3 compounds from ChEMBL document CHEMBL1154133, “Pestalazines and pestalamides, bioactive metabolites from the plant pathogenic fungus Pestalotiopsis theae” (J Nat Prod, 2008).

In brackets after ≈: the same amount, converted by molar mass. Where a name gives a salt, the structure may show the parent alone.

The MIC is the lowest concentration that inhibits growth of the organism. Lower therefore signals inhibition by little substance. For orientation: EC50 means the concentration needed to bring the measured effect to its halfway point. By IC50 is commonly meant the concentration that inhibits the measured activity by half. Lower therefore signals greater potency. As a reminder, the CC50 is the concentration at which the toxic effect on the cells reaches its halfway point.

Data set [1] deals with Aspergillus fumigatus. Put plainly: Antifungal activity against Aspergillus fumigatus ATCC 10894 by alamar blue assay. It counts as functional. On the technique in general: Resazurin is reduced to fluorescent resorufin, in cell work by metabolically active cells.
Data set [2] concerns Human immunodeficiency virus 1. Put plainly: Antiviral activity against HIV1 LAI infected in human C8166 cells assessed as inhibition of viral replication by ELISA. It counts as functional, organism-based. The settings on record: Human immunodeficiency virus 1, LAI.
Data set [3] has as its system Aspergillus fumigatus. Nature of the data set: Antifungal activity against Aspergillus fumigatus ATCC 10894 by microplate reader assay. It counts as functional, organism-based.
The nature of data set [4]: Cytotoxicity against human C8166 cells after 4 days by MTT assay. The class given is cell-based.

In the case of `OC(Cn1cncn1)(Cn1cncn1)c1ccc(F)cc1F` [FLUCONAZOLE], in the data set on Aspergillus fumigatus [1], the minimal inhibitory concentration (MIC) came to 163 µM (≈ 50 µg/mL).
On to `CC(C)(C)NC(=O)[C@@H]1CN(Cc2cccnc2)CCN1C[C@@H](O)C[C@@H](Cc1ccccc1)C(=O)N[C@H]1c2ccccc2C[C@H]1O` [INDINAVIR SULFATE], for which the concentration giving a half-maximal response (EC50) in data set [2] was 5.5 nM.
As to `C[C@@H](CC(=O)NC(=O)c1coc(Cc2ccccc2)cc1=O)C(=O)O` [PESTALAMIDE A], the EC50 in data set [2] was 64200 nM. The compound further registered an IC50 in the data set on Aspergillus fumigatus [3] of 1500 nM. The compound further registered a CC50 at 96 h in data set [4] greater than 100000 nM. This compound also registered an MIC against Aspergillus fumigatus [1] of 57.8 µM (≈ 19.8 µg/mL).
